BigSolDB 2.1

Oc1ccccc1C=N[C@@H]1CCCC[C@H]1N=Cc1ccccc1O
solubility (mole fraction)
Details	273.15 K	278.15 K	283.15 K	288.15 K	293.15 K	298.15 K	303.15 K	308.15 K	313.15 K
in 1,2-dichloroethane	0.0862	0.0965	0.109	0.12	0.134	0.15	0.168	0.187	0.211
in THF	0.135	0.144	0.157	0.169	0.186	0.201	0.221	0.242	0.263
in acetone	0.0295	0.0351	0.0402	0.0462	0.053	0.0626	0.0732	0.0843	0.0956
in acetonitrile	0.00397	0.00491	0.00616	0.0076	0.00961	0.0122	0.0159	0.02	0.025
in dichloromethane	0.117	0.13	0.141	0.154	0.165	0.18	0.197	0.213	0.229
in ethanol	0.000787	0.000988	0.00123	0.00153	0.00189	0.00236	0.0029	0.00358	0.00452
in ethyl acetate	0.0241	0.0294	0.0347	0.0415	0.0489	0.0592	0.0691	0.0852	0.101
in methanol	0.00051	0.000645	0.000817	0.00103	0.00128	0.00161	0.00198	0.00242	0.00298
in methyl acetate	0.0199	0.0244	0.0292	0.0357	0.0436	0.0532	0.0648	0.0791	0.0961
in n-hexane	0.000539	0.000713	0.000988	0.00131	0.00172	0.00223	0.00287	0.00376	0.00449
in n-propanol	0.001	0.00125	0.00157	0.00196	0.00243	0.00303	0.00372	0.00452	0.00554
in toluene	0.0411	0.0487	0.0566	0.0674	0.0802	0.0954	0.11	0.129	0.149
